# Measured values reported in US4897409A, “5-aminoethyloxazolidin-2-one derivatives” (Delalande S.A., priority 1986, dated 1990).
# Key:
# [1] = target: T1, MAO-A of the brain of a rat (Rattus norvegicus, UniProt P21396); assay: in vitro inhibition of MAO-A, total rat brain homogenate; format: biochemical; settings: preincubation of 60', 1 g of tissue/16 ml phosphate buffer pH 7.4, substrate [14C]5-hydroxytryptamine 480 μM, read-out: IC 50 (A), MAO-A
# T1 construct: total rat brain homogenate, with 1 g of tissue/16 ml of phosphate buffer; from tissue; host or cells: rat brain, total homogenate
# T1 sequence (P21396 1-526): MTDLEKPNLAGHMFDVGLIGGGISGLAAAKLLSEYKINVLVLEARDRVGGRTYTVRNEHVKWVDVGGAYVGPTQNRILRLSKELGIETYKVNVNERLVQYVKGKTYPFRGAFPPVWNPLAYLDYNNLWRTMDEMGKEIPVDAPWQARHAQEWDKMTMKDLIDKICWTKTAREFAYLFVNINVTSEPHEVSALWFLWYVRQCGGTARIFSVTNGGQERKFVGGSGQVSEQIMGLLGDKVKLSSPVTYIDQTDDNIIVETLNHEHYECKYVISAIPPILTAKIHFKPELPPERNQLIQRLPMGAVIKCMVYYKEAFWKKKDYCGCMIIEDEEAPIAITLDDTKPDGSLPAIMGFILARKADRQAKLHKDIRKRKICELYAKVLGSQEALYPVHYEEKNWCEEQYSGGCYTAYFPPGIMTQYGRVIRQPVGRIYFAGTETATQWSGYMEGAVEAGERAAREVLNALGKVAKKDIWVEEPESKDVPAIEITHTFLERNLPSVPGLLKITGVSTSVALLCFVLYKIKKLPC
# Procedure: (§1) This activity has been given prominence by the implementation of the protocol described by P. DOSTERT et al. in J. Pharm. Parmacol., 1983, 35, 161-165; this protocol is based on enzymatic tests carried out with or without preincubation in particular for 60 minutes and it allows measurement in vitro of the inhibiting effect with regard to the MAO-A and the MAO-B of the brain of a rat.
# (§2) In Table 4 below are shown the inhibiting concentrations 50 (IC 50) for the A and B forms of MAO, obtained for a number of compounds (I) according to the invention following the above protocol applied to a total rat brain homogenate, with 1 g of tissue/16 ml of phosphate buffer of pH 7.4.
# (§3) Substrate concentrations: [^14 C]5hydroxytryptamine = 480 μM,
# (§4) [^14 C]phenylethylamine = 12 μM for the study of the inhibition o
# [2] = target: T2, MAO-B of the brain of a rat (Rattus norvegicus, UniProt P19643); assay: in vitro inhibition of MAO-B, total rat brain homogenate; format: biochemical; settings: preincubation of 60'; for ratio IC 50 (A) / IC 50 (B) (head is drawing 22): selectivity MAO-B over MAO-A, 60 min; for IC50: total rat brain homogenate, 1 g of tissue/16 ml phosphate buffer pH 7.4, substrate [14C]phenylethylamine 12 μM, read-out: IC 50 (B), MAO-B
# T2 construct: total rat brain homogenate, with 1 g of tissue/16 ml of phosphate buffer; from tissue; host or cells: rat brain, total homogenate
# T2 sequence (P19643 1-520): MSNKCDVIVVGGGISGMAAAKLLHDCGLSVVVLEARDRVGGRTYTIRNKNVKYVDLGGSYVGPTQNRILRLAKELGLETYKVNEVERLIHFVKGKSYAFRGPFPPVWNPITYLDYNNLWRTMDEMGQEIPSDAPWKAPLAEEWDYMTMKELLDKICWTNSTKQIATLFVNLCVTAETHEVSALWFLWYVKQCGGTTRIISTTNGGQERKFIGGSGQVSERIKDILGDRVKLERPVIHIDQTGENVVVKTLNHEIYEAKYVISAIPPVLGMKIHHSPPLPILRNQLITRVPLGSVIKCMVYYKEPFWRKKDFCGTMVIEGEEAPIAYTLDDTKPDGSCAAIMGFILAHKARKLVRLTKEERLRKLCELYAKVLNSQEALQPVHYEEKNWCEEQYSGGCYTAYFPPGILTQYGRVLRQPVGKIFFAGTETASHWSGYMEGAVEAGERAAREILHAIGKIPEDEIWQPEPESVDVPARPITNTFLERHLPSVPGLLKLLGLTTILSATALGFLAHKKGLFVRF
# Procedure: as §1, §2, §3, §4
SMILES,IC50 [1] [µM],ratio IC 50 (A) / IC 50 (B) (head is drawing 22) [2],IC50 [2] [µM]
C[C@@H]([C@H]1CN(c2ccc(OCc3cccc(Cl)c3)cc2)C(=O)O1)N(C)C (relative stereo) [compound 340742],> 1000,> 6250,0.16
"C[C@@H]([C@H]1CN(c2ccc(OCc3cccc(Cl)c3)cc2)C(=O)O1)N(C)C [compound 200562, erythro stereoisomer (-) (R, S) of 3-[4-(3-chlorobenzyloxy)phenyl] 5-(1-dimethylaminoethyl) oxazolidin-2-one]",> 100,> 1887,0.053
C[C@@H](N)[C@H]1CN(c2ccc(OCc3cccc(Cl)c3)cc2)C(=O)O1 [compound 340321],> 100,> 19,5.34
CN[C@@H](C)[C@@H]1CN(c2ccc(OCc3cccc(Cl)c3)cc2)C(=O)O1 [compound 340333],> 100,> 78,1.28
C[C@H](N)[C@@H]1CN(c2ccc(OCc3cccc(Cl)c3)cc2)C(=O)O1 [compound 340366],> 100,> 61,1.64
COc1cccc(COc2ccc(N3C[C@H]([C@H](C)N(C)C)OC3=O)cc2)c1 [compound 340744],> 1000,> 4000,0.25
C[C@H]([C@@H]1CN(c2ccc(OCc3cccc(Cl)c3)cc2)C(=O)O1)N(C)C [compound 340746],> 1000,> 625,1.6
COc1cccc(COc2ccc(N3C[C@@H]([C@@H](C)N(C)C)OC3=O)cc2)c1 [compound 340747],> 1000,> 67,15

# Results, then the compound that gave them:
IC50 [1] [µM],ratio IC 50 (A) / IC 50 (B) (head is drawing 22) [2],IC50 [2] [µM],SMILES
1000,2500,0.4,COc1cccc(COc2ccc(N3C[C@H]([C@H](C)N(C)C)OC3=O)cc2)c1 (relative stereo) [compound 340743]
15,300,0.05,CN[C@@H](C)[C@H]1CN(c2ccc(OCc3cccc(Cl)c3)cc2)C(=O)O1 (relative stereo) [compound 340745]
300,> 15,20,C[C@H]([C@H]1CN(c2ccc(OCc3cccc(Cl)c3)cc2)C(=O)O1)N(C)C (relative stereo) [compound 340748]
> 30,> 10,300,COc1cccc(COc2ccc(N3C[C@H]([C@@H](C)N(C)C)OC3=O)cc2)c1 (relative stereo) [compound 340749]
210,553,0.38,C[C@H](N)[C@H]1CN(c2ccc(OCc3cccc(Cl)c3)cc2)C(=O)O1 (relative stereo) [compound 340750]
18.3,16,1.16,CN[C@H](C)[C@@H]1CN(c2ccc(OCc3cccc(Cl)c3)cc2)C(=O)O1 [compound 340179]
7.43,95,0.078,CN[C@@H](C)[C@H]1CN(c2ccc(OCc3cccc(Cl)c3)cc2)C(=O)O1 [compound 340271]
148,110,1.35,CN[C@H](C)[C@H]1CN(c2ccc(OCc3cccc(Cl)c3)cc2)C(=O)O1 [compound 340276]
